The record followed here is patent US7250417B2, “Arylmethyl triazolo- and imidazopyrazines as c-Met inhibitors” (Sugen Inc., priority 2003, dated 2007).

For this experiment, the target named is T1, c-MET (purified GST fusion protein containing the Met kinase domain) (Homo sapiens, UniProt P08581).
T1 construct: Purified GST fusion protein containing the Met kinase domain, Sugen, Inc
Briefly: Met transphosphorylation assay (ELISA, poly(Glu,Tyr) 4:1 substrate). Format: biochemical. Particulars: purified GST-Met kinase domain 10 ng/well. On the procedure: Met Transphosphorylation Assay
This assay is used to measure phosphotyrosine levels on a poly(glutamic acid:tyrosine (4:1)) substrate as a means for identifying agonists/antagonists of met transphosphorylation of the substrate.
• 1. […] PBS, Gibco Catalog #450-1300EB • 4. 50 mM HEPES • 5. […] Purified GST fusion protein containing the Met kinase domain, Sugen, Inc. • 7. TBST Buffer. • 8. 10% aqueous (MilliQue H2O) DMSO. • 9. […] 2× Kinase Dilution Buffer: for 100 ml, mix 10 mL 1 M HEPES at pH 7.5 with 0.4 mL 5% BSA/PBS, 0.2 mL 0.1 M sodium orthovanadate and 1 mL 5M sodium chloride in 88.4 mL dH2O. • 11. 4× ATP Reaction Mixture: for 10 mL, mix 0.4 mL 1 M manganese chloride and 0.02 mL 0.1 M ATP in 9.56 mL dH2O. • 12. 4× Negative Controls Mixture: for 10 mL, mix 0.4 mL 1 M manganese chloride in 9.6 mL dH2O. • 13. […] 500 mM EDTA. • 15. Antibody Dilution Buffer: for 100 mL, mix 10 mL 5% BSA/PBS, 0.5 mL 5% Camation Instant Milk® in PBS and 0.1 mL 0.1 M sodium orthovanadate in 88.4 mL TBST. • 16. Rabbit polyclonal antophosphotyrosine antibody, Sugen, Inc. • 17. Goat anti-rabbit horseradish peroxidase conjugated antibody, Biosource, Inc. • 18. ABTS Solution: for 1 L, mix 19.21 g citric acid, 35.49 g Na2HPO4 and 500 mg ABTS with sufficient dH2O to make 1 L. • 19. ABTS/H2O2: mix 15 mL ABST solution with 2ILL H2O2 five minutes before use. • 20. 0.2 M HCl Procedure: • 1. Coat ELISA plates with 2 μg Poly(Glu-Tyr) in 100 pL PBS, store overnight at 4° C. • 2. Block plate with 150 μL of 5% BSA/PBS for 60 min. • 3. Wash plate twice with PBS, once with 50 mM Hepes buffer pH 7.4. • 4. Add 50 μl of the diluted kinase to all wells. (Purified kinase is diluted with Kinase Dilution Buffer. Final concentration should be 10 ng/well.) • 5. Add 25 μL of the test compound (in 4% DMSO) or DMSO alone (4% in dH2O) for controls to plate. • 6. Incubate the kinase/compound mixture for 15 minutes. • 7. Add 25 μL of 40 mM MnCl2to the negative control wells. • 8. Add 25 μL ATP/MnCl2 mixture to the all other wells (except the negative controls). Incubate for 5 min. • 9. Add 25 μL 500 mM EDTA to stop reaction. • 10. Wash plate 3× with TBST. 11. Add 100 μL rabbit polyclonal anti-Ptyr diluted 1:10,000 in Antibody Dilution Buffer to each well. Incubate, with shaking, at room temperature for one hour. • 12. Wash plate 3× with TBST. • 13. […] Add 100 μL per well and incubate at room temperature, with shaking, for one hour. • 14. Wash plate 1× with PBS. • 15. Add 100 μl of ABTS/H2O2 solution to each well. • 16. If necessary, stop the development reaction with the addition of 100 μl of 0.2M HCl per well. • 17.
(An ELISA detects its analyte on a solid surface through an enzyme-linked reagent.)

Structures are written as SMILES. Several values for one entry are separate records, joined by “and”; a condition that tells them apart may be missing. Equal entries are not always repeated.

T1 sequence (P08581 1078-1345 limits assumed): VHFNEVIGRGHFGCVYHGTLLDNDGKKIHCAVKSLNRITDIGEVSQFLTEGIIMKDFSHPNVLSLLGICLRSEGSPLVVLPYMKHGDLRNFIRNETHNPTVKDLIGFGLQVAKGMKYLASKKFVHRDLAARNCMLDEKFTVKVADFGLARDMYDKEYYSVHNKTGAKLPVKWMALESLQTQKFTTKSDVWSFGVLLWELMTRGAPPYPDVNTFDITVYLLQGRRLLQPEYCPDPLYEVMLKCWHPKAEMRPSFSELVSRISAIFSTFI

What is called IC50 is the concentration that gives 50% inhibition. A high value points to lower potency. `Oc1ccc(Cn2cnc3ncc(Br)cc32)cc1` [Example 14, 4-(6-Bromo-imidazo[4,5-b]pyridin-1-ylmethyl)-phenol] returned an IC50 of 9600 nM.

With `Fc1ccc(Cn2nnc3ncc(-c4ccc(OCCN5CCOCC5)cc4)nc32)cc1` [Example 11, 1-(4-Fluoro-benzyl)-6-[4-(2-morpholin-4-yl-ethoxy)-phenyl]-1H-[1,2,3]triazolo[4,5-b]pyrazine], the IC50 came out at 170 nM.

Compound `Fc1ccc(Cn2nnc3ncc(-c4cccc(OCCN5CCOCC5)c4)nc32)cc1` [Example 10, 1-(4-Fluoro-benzyl)-6-[3-(2-morpholin-4-yl-ethoxy)-phenyl]-1H-[1,2,3]triazolo[4,5-b]pyrazine] gave an IC50 of 1000 nM.

`Fc1ccc(Cn2cnc3ncc(-c4ccc(OCCN5CCOCC5)cc4)nc32)cc1` [Example 7, 1-(4-Fluoro-benzyl)-6-[4-(2-morpholin-4-yl-ethoxy)-phenyl]-1H-imidazo[4,5-b]pyrazine] returned a concentration for half-maximal inhibition (IC50) of more than 20000 nM.

The compound `COc1ccc(Cn2cnc3ncc(Br)cc32)cc1` [Example 13, 6-Bromo-1-(4-methoxy-benzyl)-1H-imidazo[4,5-b]pyridine] displayed an IC50 of more than 20000 nM.

Take `Oc1ccc(Cn2cnc3ncc(-c4cccs4)nc32)cc1` [Example 1, 4-(6-Thiophen-2-yl-imidazo[4,5-b]pyrazin-1-ylmethyl)-phenol]: half-maximal inhibition (IC50) was put at 150 nM.

`Fc1ccc(Cn2nnc3ncc(-c4cccs4)nc32)cc1` [Example 9, 1-(4-Fluoro-benzyl)-6-thiophen-2-yl-1H-[1,2,3]triazolo[4,5-b]pyrazine] came in with an IC50 of 160 nM.

Compound `Fc1ccc(Cn2cnc3ncc(-c4cccs4)nc32)cc1` [Example 4, 1-(4-Fluoro-benzyl)-6-thiophen-2-yl-1 H-imidazo[4,5-b]pyrazine] gave an IC50 of more than 20000 nM.

Compound `Fc1ccc(Cn2cnc3ncc(-c4cccc(OCCN5CCOCC5)c4)nc32)cc1` [Example 6, 1-(4-Fluoro-benzyl)-6-[3-(2-morpholin-4-yl-ethoxy)-phenyl]-1H-imidazo[4,5-b]pyrazine] gave an IC50 of more than 20000 nM.

Consider `Fc1ccc(Cn2nnc3ncc(Br)nc32)cc1` [Example 8, 6-Bromo-1-(4-fluoro-benzyl)-1H-[1,2,3]triazolo[4,5-b]pyrazine], for which the IC50 was 310 nM and 1710 nM.

Compound `COc1ccc(Cn2cnc3ncc(-c4ccc(F)cc4)nc32)cc1` [Example 2, 6-(4-Fluoro-phenyl)-1-(4-methoxy-benzyl)-1H-imidazo[4,5-b]pyrazine] displayed an IC50 of 1790 nM.

For `Fc1ccc(Cn2nnc3ncc(-c4cc5ccccc5[nH]4)nc32)cc1` [Example 12, 1-(4-Fluoro-benzyl)-6-(1H-indol-2-yl)-1H-[1,2,3]triazolo[4,5-b]pyrazine], the IC50 amounted to 1150 nM.

For `Fc1ccc(Cn2cnc3ncc(-c4ccc(F)cc4)nc32)cc1` [Example 5, 1-(4-Fluoro-benzyl)-6-(4-fluoro-phenyl)-1H-imidazo[4,5-b]pyrazine], the half-maximal inhibitory concentration (IC50) is more than 20000 nM.
